From the supplement of paper PMC10307832

Tests used:
Assay in all cases: relative viability (nuclei count vs DMSO), 5 days (fraction); higher = more cells survive
Dactolisib + Palbociclib = compound: Cn1c(=O)n(-c2ccc(C(C)(C)C#N)cc2)c2c3cc(-c4cnc5ccccc5c4)ccc3ncc21 [Dactolisib] + CC(=O)c1c(C)c2cnc(Nc3ccc(N4CCNCC4)cn3)nc2n(C2CCCC2)c1=O [Palbociclib] (partner 0.5 µM)
Procedure, shortened: (§1)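 Five library-drug doses in √10 steps were combined with a fixed anchor-drug dose, or a single drug was given alone, by pin tool to lung cancer cell lines in 1536-well plates the day after seeding. Nuclei were stained and counted after 5 days. Relative viability is the nuclei count in treated wells over that in vehicle wells, taken as the median of duplicate plates.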

Dactolisib + Dasatinib = compound: Cn1c(=O)n(-c2ccc(C(C)(C)C#N)cc2)c2c3cc(-c4cnc5ccccc5c4)ccc3ncc21 [Dactolisib] + Cc1nc(Nc2ncc(C(=O)Nc3c(C)cccc3Cl)s2)cc(N2CCN(CCO)CC2)n1 [Dasatinib] (partner 0.075 µM)
Procedure, shortened: as §1

AZ505 + Bortezomib = compound: C1CCC(CC1)N(CCNCCC2=C3C(=C(C=C2)O)NC(=O)CO3)C(=O)CCNCCC4=CC(=C(C=C4)Cl)Cl [AZ505] + CC(C)C[C@H](NC(=O)[C@H](Cc1ccccc1)NC(=O)c1cnccn1)B(O)O [Bortezomib] (partner 0.002 µM)
Procedure, shortened: as §1

AZ505 + Linsitinib = compound: C1CCC(CC1)N(CCNCCC2=C3C(=C(C=C2)O)NC(=O)CO3)C(=O)CCNCCC4=CC(=C(C=C4)Cl)Cl [AZ505] + C[C@]1(O)C[C@@H](c2nc(-c3ccc4ccc(-c5ccccc5)nc4c3)c3c(N)nccn32)C1 [Linsitinib] (partner 1 µM)
Procedure, shortened: as §1

Cell Line | relative viability (Dactolisib + Palbociclib; first compound 0.002 µM) | relative viability (Dactolisib + Palbociclib; first compound 0.006325 µM) | relative viability (Dactolisib + Palbociclib; first compound 0.02 µM) | relative viability (Dactolisib + Palbociclib; first compound 0.06325 µM) | relative viability (Dactolisib + Palbociclib; first compound 0.2 µM) | relative viability (Dactolisib + Dasatinib; first compound 0.002 µM) | relative viability (Dactolisib + Dasatinib; first compound 0.006325 µM) | relative viability (Dactolisib + Dasatinib; first compound 0.02 µM) | relative viability (Dactolisib + Dasatinib; first compound 0.06325 µM) | relative viability (Dactolisib + Dasatinib; first compound 0.2 µM) | relative viability (AZ505 + Bortezomib; first compound 0.08 µM) | relative viability (AZ505 + Bortezomib; first compound 0.253 µM) | relative viability (AZ505 + Bortezomib; first compound 0.8 µM) | relative viability (AZ505 + Bortezomib; first compound 2.53 µM) | relative viability (AZ505 + Bortezomib; first compound 8 µM) | relative viability (AZ505 + Linsitinib; first compound 0.253 µM) | relative viability (AZ505 + Linsitinib; first compound 0.8 µM) | relative viability (AZ505 + Linsitinib; first compound 2.53 µM) | relative viability (AZ505 + Linsitinib; first compound 8 µM) | relative viability (AZ505 + Linsitinib; first compound 0.08 µM)
HCC-78 | 0.46 | 0.453 | 0.479 | 0.475 | 0.441 | 0.427 | 0.409 | 0.336 | 0.399 | 0.224 | 0.619 | 0.72 | 0.557 | 0.546 | 0.587 | 0.642 | 0.571 | 0.619 | 0.7 | –
HCC-366 | 0.402 | 0.349 | 0.232 | 0.102 | 0.0378 | 0.598 | 0.565 | 0.597 | 0.341 | 0.136 | 0.933 | 1.01 | 1.02 | 0.952 | 1.11 | 0.552 | 0.672 | 0.599 | 0.678 | 0.534
HCC-827 | 0.473 | 0.518 | 0.47 | 0.36 | 0.171 | 0.28 | 0.331 | 0.301 | 0.238 | 0.207 | 0.92 | 0.957 | 1.01 | 1 | 1.1 | 0.958 | 0.856 | 0.977 | 0.964 | 0.923
HOP-62 | 0.467 | 0.45 | 0.383 | 0.288 | 0.147 | 0.637 | 0.578 | 0.625 | 0.349 | 0.277 | 0.911 | 0.82 | 1.01 | 0.839 | 0.945 | 1.03 | 1.08 | 0.863 | 1.08 | 0.932
IA-LM | – | – | – | – | – | – | – | – | – | – | 0.59 | 0.867 | 0.835 | 0.866 | 0.896 | 0.572 | 0.701 | 0.597 | 0.643 | 0.497
LC-2-ad | 0.434 | 0.48 | 0.51 | 0.454 | 0.426 | 0.495 | 0.486 | 0.491 | 0.349 | 0.297 | 1 | 1.04 | 0.915 | 1.01 | 1.03 | 0.901 | 0.844 | 0.883 | 0.845 | 0.819
LK-2 | 0.513 | 0.653 | 0.491 | 0.212 | 0.167 | 0.279 | 0.322 | 0.31 | 0.182 | 0.144 | – | – | – | – | – | 0.703 | 0.578 | 0.427 | 0.812 | 0.408
NCI-H358 | 0.141 | 0.146 | 0.134 | 0.112 | 0.096 | 0.162 | 0.157 | 0.191 | 0.0796 | 0.0694 | – | – | – | – | – | 0.689 | 0.689 | 0.752 | 0.669 | 0.733
NCI-H522 | 0.924 | 1 | 0.99 | 0.754 | 0.674 | 0.993 | 0.791 | 0.822 | 0.689 | 0.581 | – | – | – | – | – | – | – | – | – | –
NCI-H596 | – | – | – | – | – | 0.629 | 0.539 | 0.528 | 0.384 | 0.319 | 0.963 | 0.847 | 0.756 | 1.19 | 1.03 | 0.932 | 0.933 | 1 | 0.908 | 0.953
NCI-H1299 | – | – | – | – | – | – | – | – | – | – | 1.01 | 1.05 | 0.926 | 0.998 | 1.01 | 0.942 | 0.965 | 0.903 | 0.922 | 0.913
NCI-H1395 | 0.558 | 0.589 | 0.556 | 0.452 | 0.419 | 0.405 | 0.405 | 0.392 | 0.381 | 0.355 | – | – | – | – | – | 1.01 | 0.949 | 0.971 | 1 | 0.972
NCI-H1563 | – | – | – | – | – | 0.498 | 0.466 | 0.47 | 0.474 | 0.458 | 0.846 | 0.743 | 0.83 | 0.766 | 0.922 | 1.32 | 1.13 | 1.29 | 1.15 | 1.24
NCI-H1623 | – | – | – | – | – | 0.518 | 0.585 | 0.528 | 0.412 | 0.379 | – | – | – | – | – | – | – | – | – | –
NCI-H1648 | 0.284 | 0.283 | 0.231 | 0.206 | 0.215 | – | – | – | – | – | – | – | – | – | – | – | – | – | – | –
NCI-H1650 | 0.357 | 0.348 | 0.298 | 0.191 | 0.142 | 0.306 | 0.3 | 0.296 | 0.245 | 0.205 | 0.234 | 0.189 | 0.205 | 0.248 | 0.188 | – | – | – | – | –
NCI-H1703 | – | – | – | – | – | – | – | – | – | – | 0.351 | 0.383 | 0.366 | 0.358 | 0.458 | 0.588 | 1.17 | 0.997 | 0.853 | 0.635
NCI-H1793 | 0.289 | 0.212 | 0.21 | 0.212 | 0.19 | 0.388 | 0.312 | 0.253 | 0.16 | 0.134 | – | – | – | – | – | 0.769 | 0.932 | 1.03 | 1.06 | 0.766
NCI-H1944 | 0.403 | 0.334 | 0.23 | 0.192 | 0.181 | 0.22 | 0.2 | 0.212 | 0.165 | 0.148 | – | – | – | – | – | 1.12 | 1.23 | 0.922 | 1.07 | 1.15
NCI-H2170 | 0.379 | 0.385 | 0.316 | 0.205 | 0.167 | 0.644 | 0.538 | 0.652 | 0.486 | 0.289 | – | – | – | – | – | – | – | – | – | –
NCI-H2342 | 0.556 | 0.535 | 0.505 | 0.454 | 0.466 | 0.298 | 0.294 | 0.348 | 0.31 | 0.284 | – | – | – | – | – | – | – | – | – | –
SK-MES-1 | 0.297 | 0.298 | 0.269 | 0.247 | 0.214 | 0.433 | 0.375 | 0.307 | 0.222 | 0.147 | – | – | – | – | – | 0.922 | 0.97 | 0.879 | 1.03 | 0.89
SW 900 | 0.683 | 0.46 | 0.45 | 0.248 | 0.199 | 0.431 | 0.455 | 0.694 | 0.265 | 0.174 | – | – | – | – | – | – | – | – | – | –
